ChEMBL document CHEMBL1201862, “PubChem BioAssay data set” (2004)
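Compound exposure: 48 hours, 5 concentrations, 96-well plates. The concentration for 50% growth inhibition is given as GI50.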 Active and inactive are the calls of the source. Cut-off read from the data, not from the text of the source: active = GI50 up to about 1.1 µM and inactive = higher.

Legend:
Assay in all cases: DTP human tumour cell line panel, 48 h
A549 = test system: A549
CAKI-1 = test system: CAKI-1
CCRF-CEM = test system: CCRF-CEM
COLO 205 = test system: COLO 205
DMS-114 = test system: DMS-114
DMS-273 = test system: DMS-273
EKVX = test system: EKVX
HCC 2998 = test system: HCC 2998
HCT-15 = test system: HCT-15
HL-60 = test system: HL-60
HOP-92 = test system: HOP-92
HT-29 = test system: HT-29
IGROV-1 = test system: IGROV-1
K562 = test system: K562
KM12 = test system: KM12
LOX IMVI = test system: LOX IMVI
LXFL 529 = test system: LXFL 529
M14 = test system: M14
M19-MEL = test system: M19-MEL
MOLT-4 = test system: MOLT-4
NCI-H226 = test system: NCI-H226
NCI-H23 = test system: NCI-H23
NCI-H522 = test system: NCI-H522
OVCAR-3 = test system: OVCAR-3
OVCAR-4 = test system: OVCAR-4
OVCAR-8 = test system: OVCAR-8
RPMI-8226 = test system: RPMI-8226
SF-539 = test system: SF-539
SK-MEL-28 = test system: SK-MEL-28
SK-MEL-5 = test system: SK-MEL-5
SK-OV-3 = test system: SK-OV-3
SN12C = test system: SN12C
SNB-75 = test system: SNB-75
SNB-78 = test system: SNB-78
SW-620 = test system: SW-620
TK-10 = test system: TK-10
UACC-257 = test system: UACC-257
UACC-62 = test system: UACC-62
XF498 = test system: XF498
786-0 = test system: 786-0
A498 = test system: A498
ACHN = test system: ACHN
HCT-116 = test system: HCT-116
HOP-18 = test system: HOP-18
KM-20L2 = test system: KM-20L2
Malme-3M = test system: Malme-3M
NCI-H460 = test system: NCI-H460
OVCAR-5 = test system: OVCAR-5
SF-268 = test system: SF-268
SF-295 = test system: SF-295
SK-MEL-2 = test system: SK-MEL-2
SNB-19 = test system: SNB-19
SR = test system: SR
U-251 = test system: U-251
UO-31 = test system: UO-31

## CCN(CC)CSc1nc2ccccc2s1
A549
  GI50: > 100 µM (inactive)
CAKI-1
  GI50: > 100 µM (inactive)
CCRF-CEM
  GI50: > 100 µM (inactive)
COLO 205
  GI50: > 100 µM (inactive)
DMS-114
  GI50: > 100 µM (inactive)
DMS-273
  GI50: > 100 µM (inactive)
EKVX
  GI50: > 100 µM (inactive)
HCC 2998
  GI50: > 100 µM (inactive)
HCT-15
  GI50: > 100 µM
HL-60
  GI50: > 100 µM (inactive)
HOP-92
  GI50: > 100 µM (inactive)
HT-29
  GI50: > 100 µM (inactive)
IGROV-1
  GI50: > 100 µM (inactive)
K562
  GI50: > 100 µM (inactive)
KM12
  GI50: > 100 µM (inactive)
LOX IMVI
  GI50: > 100 µM (inactive)
LXFL 529
  GI50: > 100 µM (inactive)
M14
  GI50: > 100 µM (inactive)
M19-MEL
  GI50: > 100 µM (inactive)
MOLT-4
  GI50: > 100 µM (inactive)
NCI-H226
  GI50: > 100 µM (inactive)
NCI-H23
  GI50: > 100 µM (inactive)
NCI-H522
  GI50: > 100 µM (inactive)
OVCAR-3
  GI50: > 100 µM (inactive)
OVCAR-4
  GI50: > 100 µM (inactive)
OVCAR-8
  GI50: > 100 µM (inactive)
RPMI-8226
  GI50: > 100 µM (inactive)
SF-539
  GI50: > 100 µM (inactive)
SK-MEL-28
  GI50: > 100 µM (inactive)
SK-MEL-5
  GI50: > 100 µM (inactive)
SK-OV-3
  GI50: > 100 µM (inactive)
SN12C
  GI50: > 100 µM (inactive)
SNB-75
  GI50: > 100 µM (inactive)
SNB-78
  GI50: > 100 µM (inactive)
SW-620
  GI50: > 100 µM (inactive)
TK-10
  GI50: > 100 µM (inactive)
UACC-257
  GI50: > 100 µM (inactive)
UACC-62
  GI50: > 100 µM (inactive)
XF498
  GI50: > 100 µM (inactive)

## O=C1NC2OC(C(O)CO)C(O)C2O1 (stereo not given)
786-0
  GI50: > 100 µM (inactive)
A498
  GI50: > 100 µM (inactive)
A549
  GI50: > 100 µM (inactive)
ACHN
  GI50: > 100 µM (inactive)
CAKI-1
  GI50: > 100 µM (inactive)
CCRF-CEM
  GI50: > 100 µM (inactive)
COLO 205
  GI50: > 100 µM (inactive)
DMS-114
  GI50: > 100 µM (inactive)
DMS-273
  GI50: > 100 µM (inactive)
EKVX
  GI50: > 100 µM (inactive)
HCC 2998
  GI50: > 100 µM (inactive)
HCT-116
  GI50: > 100 µM (inactive)
HCT-15
  GI50: > 100 µM
HL-60
  GI50: > 100 µM (inactive)
HOP-18
  GI50: > 100 µM (inactive)
HOP-92
  GI50: > 100 µM (inactive)
HT-29
  GI50: > 100 µM (inactive)
IGROV-1
  GI50: > 100 µM (inactive)
K562
  GI50: > 100 µM (inactive)
KM-20L2
  GI50: > 100 µM (inactive)
KM12
  GI50: > 100 µM (inactive)
LOX IMVI
  GI50: > 100 µM (inactive)
LXFL 529
  GI50: > 100 µM (inactive)
M14
  GI50: > 100 µM (inactive)
M19-MEL
  GI50: > 100 µM (inactive)
MOLT-4
  GI50: > 100 µM (inactive)
Malme-3M
  GI50: > 100 µM (inactive)
NCI-H23
  GI50: > 100 µM (inactive)
NCI-H460
  GI50: > 100 µM (inactive)
NCI-H522
  GI50: > 100 µM (inactive)
OVCAR-3
  GI50: > 100 µM (inactive)
OVCAR-4
  GI50: > 100 µM (inactive)
OVCAR-5
  GI50: > 100 µM (inactive)
OVCAR-8
  GI50: > 100 µM (inactive)
SF-268
  GI50: > 100 µM (inactive)
SF-295
  GI50: > 100 µM (inactive)
SK-MEL-28
  GI50: > 100 µM (inactive)
SK-MEL-2
  GI50: > 100 µM (inactive)
SK-MEL-5
  GI50: > 100 µM (inactive)
SK-OV-3
  GI50: > 100 µM (inactive)
SN12C
  GI50: > 100 µM (inactive)
SNB-19
  GI50: > 100 µM (inactive)
SNB-75
  GI50: > 100 µM (inactive)
SR
  GI50: > 100 µM (inactive)
SW-620
  GI50: > 100 µM (inactive)
TK-10
  GI50: > 100 µM (inactive)
U-251
  GI50: > 100 µM (inactive)
UACC-257
  GI50: > 100 µM (inactive)
UACC-62
  GI50: > 100 µM (inactive)
UO-31
  GI50: > 100 µM (inactive)
XF498
  GI50: > 100 µM (inactive)
